Measured values as given in ChEMBL document CHEMBL5291721, “A preclinical secondary pharmacology resource illuminates target-adverse drug reaction associations of marketed drugs” (Nat Commun, 2023).

What was measured:
Adenosine receptor A2a = Adenosine receptor A2a (Homo sapiens, UniProt P29274)
[1] = biological target: T1, Alpha-2A adrenergic receptor (Homo sapiens, UniProt P08913); format: functional, cell-based
T1 sequence (P08913 whole entry): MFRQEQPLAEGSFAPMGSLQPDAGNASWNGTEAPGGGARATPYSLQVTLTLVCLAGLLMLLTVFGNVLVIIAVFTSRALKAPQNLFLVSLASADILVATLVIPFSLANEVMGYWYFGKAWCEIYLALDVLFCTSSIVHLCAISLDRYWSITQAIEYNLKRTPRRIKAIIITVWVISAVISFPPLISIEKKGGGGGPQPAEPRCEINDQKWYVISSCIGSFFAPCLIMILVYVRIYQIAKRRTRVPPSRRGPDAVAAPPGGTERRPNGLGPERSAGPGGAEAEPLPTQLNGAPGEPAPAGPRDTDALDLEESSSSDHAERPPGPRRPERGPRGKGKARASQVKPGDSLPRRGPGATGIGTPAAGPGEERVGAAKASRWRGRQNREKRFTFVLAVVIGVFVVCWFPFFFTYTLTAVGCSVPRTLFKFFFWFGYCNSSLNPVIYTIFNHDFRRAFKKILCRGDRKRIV

Vasopressin V1a receptor = Vasopressin V1a receptor (Homo sapiens, UniProt P37288)
Chain of Vasopressin V1a receptor (P37288 whole entry): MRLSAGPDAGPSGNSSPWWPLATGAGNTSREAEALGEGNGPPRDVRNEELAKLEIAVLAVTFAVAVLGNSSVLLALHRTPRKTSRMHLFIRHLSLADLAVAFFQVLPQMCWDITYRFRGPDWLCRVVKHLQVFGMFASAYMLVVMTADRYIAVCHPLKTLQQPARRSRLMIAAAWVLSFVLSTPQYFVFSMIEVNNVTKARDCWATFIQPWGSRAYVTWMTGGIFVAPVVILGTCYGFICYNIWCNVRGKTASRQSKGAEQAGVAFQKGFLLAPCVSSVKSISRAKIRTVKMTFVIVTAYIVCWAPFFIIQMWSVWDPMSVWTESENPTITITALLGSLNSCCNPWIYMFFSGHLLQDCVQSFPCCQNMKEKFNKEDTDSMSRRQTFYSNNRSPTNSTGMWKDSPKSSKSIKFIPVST

[2] = biological target: T2, Cholecystokinin receptor type A (Homo sapiens, UniProt P32238)
T2 sequence (P32238 whole entry): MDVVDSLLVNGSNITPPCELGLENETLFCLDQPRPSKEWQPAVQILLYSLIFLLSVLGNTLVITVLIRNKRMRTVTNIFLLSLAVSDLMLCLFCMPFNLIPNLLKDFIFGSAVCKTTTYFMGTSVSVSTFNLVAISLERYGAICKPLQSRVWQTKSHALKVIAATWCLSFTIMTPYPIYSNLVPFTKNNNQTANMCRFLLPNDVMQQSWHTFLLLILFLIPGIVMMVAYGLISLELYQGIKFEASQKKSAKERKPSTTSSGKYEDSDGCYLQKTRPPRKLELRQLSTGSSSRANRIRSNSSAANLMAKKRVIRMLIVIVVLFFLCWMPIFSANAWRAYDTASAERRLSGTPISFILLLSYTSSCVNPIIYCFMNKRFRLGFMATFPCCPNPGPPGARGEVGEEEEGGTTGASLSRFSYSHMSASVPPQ

[3] = biological target: Neuronal acetylcholine receptor subunit alpha-4 (Homo sapiens, UniProt P43681)
Chain of Neuronal acetylcholine receptor subunit alpha-4 (P43681 whole entry): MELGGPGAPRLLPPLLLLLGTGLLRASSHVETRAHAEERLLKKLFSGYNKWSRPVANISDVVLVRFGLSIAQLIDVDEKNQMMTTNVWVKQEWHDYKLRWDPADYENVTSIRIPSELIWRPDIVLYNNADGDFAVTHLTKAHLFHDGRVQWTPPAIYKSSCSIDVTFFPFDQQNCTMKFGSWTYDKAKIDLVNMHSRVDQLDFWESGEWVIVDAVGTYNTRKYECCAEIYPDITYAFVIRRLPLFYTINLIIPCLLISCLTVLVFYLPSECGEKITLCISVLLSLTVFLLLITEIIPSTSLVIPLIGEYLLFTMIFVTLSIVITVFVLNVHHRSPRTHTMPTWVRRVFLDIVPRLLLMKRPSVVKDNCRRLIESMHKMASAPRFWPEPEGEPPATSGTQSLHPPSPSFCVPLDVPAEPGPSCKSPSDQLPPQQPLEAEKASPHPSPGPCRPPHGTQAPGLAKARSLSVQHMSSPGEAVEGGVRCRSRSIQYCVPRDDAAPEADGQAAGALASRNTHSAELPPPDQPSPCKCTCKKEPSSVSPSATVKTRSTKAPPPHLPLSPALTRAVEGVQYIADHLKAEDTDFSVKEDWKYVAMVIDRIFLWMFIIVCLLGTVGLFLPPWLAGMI

D(1A) dopamine receptor = D(1A) dopamine receptor (Homo sapiens, UniProt P21728); format: functional, cell-based
Chain of D(1A) dopamine receptor (P21728 whole entry): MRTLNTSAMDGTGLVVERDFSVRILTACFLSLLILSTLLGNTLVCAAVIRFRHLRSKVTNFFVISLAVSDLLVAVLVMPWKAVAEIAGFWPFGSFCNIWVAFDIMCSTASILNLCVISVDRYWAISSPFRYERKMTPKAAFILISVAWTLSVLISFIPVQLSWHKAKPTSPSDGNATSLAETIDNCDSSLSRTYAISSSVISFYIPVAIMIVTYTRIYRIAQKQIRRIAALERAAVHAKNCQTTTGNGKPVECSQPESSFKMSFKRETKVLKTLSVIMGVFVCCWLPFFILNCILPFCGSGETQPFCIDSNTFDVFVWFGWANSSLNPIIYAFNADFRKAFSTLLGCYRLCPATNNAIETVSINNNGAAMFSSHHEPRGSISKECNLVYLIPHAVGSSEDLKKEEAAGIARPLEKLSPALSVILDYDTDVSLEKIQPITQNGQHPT

[4] = biological target: Gamma-aminobutyric acid receptor subunit alpha-1 (Rattus norvegicus, UniProt P62813); format: functional
[5] = biological target: Growth hormone secretagogue receptor type 1 (Homo sapiens, UniProt Q92847)
Chain of Growth hormone secretagogue receptor type 1 (Q92847 whole entry): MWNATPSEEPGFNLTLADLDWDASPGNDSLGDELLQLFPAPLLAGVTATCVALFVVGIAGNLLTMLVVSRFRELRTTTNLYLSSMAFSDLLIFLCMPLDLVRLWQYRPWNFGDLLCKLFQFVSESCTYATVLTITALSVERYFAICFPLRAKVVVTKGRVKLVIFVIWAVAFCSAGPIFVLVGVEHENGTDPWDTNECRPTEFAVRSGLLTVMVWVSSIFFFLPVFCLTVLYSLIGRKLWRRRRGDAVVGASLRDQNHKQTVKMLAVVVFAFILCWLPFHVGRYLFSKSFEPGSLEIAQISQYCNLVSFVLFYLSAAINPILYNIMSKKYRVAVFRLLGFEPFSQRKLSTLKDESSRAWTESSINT

[6] = biological target: 5-hydroxytryptamine receptor 2B (Homo sapiens, UniProt P41595); format: functional, cell-based
Melanocortin receptor 3 = Melanocortin receptor 3 (Homo sapiens, UniProt P41968)
Chain of Melanocortin receptor 3 (P41968 whole entry): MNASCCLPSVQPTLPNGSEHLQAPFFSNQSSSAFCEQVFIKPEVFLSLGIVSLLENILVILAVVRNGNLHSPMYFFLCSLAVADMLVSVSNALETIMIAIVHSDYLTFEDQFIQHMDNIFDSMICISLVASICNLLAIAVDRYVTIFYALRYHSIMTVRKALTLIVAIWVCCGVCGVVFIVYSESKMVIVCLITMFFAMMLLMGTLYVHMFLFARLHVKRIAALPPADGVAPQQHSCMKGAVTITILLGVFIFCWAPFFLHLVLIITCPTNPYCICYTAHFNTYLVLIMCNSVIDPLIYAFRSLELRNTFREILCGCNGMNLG

Motilin receptor = Motilin receptor (Homo sapiens, UniProt O43193)
Chain of Motilin receptor (O43193 whole entry): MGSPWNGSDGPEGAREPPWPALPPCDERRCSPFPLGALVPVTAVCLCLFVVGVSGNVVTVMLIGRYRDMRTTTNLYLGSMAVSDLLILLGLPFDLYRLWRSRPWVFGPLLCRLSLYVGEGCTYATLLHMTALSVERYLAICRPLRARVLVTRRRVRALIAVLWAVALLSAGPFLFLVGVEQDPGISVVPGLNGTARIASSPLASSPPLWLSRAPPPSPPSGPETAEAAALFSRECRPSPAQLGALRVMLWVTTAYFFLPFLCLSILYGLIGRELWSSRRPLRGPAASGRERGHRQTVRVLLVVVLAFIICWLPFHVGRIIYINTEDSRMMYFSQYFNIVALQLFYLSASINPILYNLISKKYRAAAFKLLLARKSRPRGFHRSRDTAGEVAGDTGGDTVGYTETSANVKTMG

[7] = biological target: Delta-type opioid receptor (Homo sapiens, UniProt P41143)
Chain of Delta-type opioid receptor (P41143 whole entry): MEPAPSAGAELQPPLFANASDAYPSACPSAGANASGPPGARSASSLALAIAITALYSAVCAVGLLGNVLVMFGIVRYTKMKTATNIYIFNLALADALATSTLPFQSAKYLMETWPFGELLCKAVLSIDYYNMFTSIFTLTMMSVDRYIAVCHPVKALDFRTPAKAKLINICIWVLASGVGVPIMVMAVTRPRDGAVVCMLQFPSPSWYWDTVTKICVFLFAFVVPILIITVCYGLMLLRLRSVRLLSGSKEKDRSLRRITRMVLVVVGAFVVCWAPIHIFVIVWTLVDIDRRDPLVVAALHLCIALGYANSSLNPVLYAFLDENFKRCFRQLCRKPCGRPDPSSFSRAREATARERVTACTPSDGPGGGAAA

[8] = biological target: 3',5'-cyclic-AMP phosphodiesterase 4D (Homo sapiens, UniProt Q08499); format: functional
Chain of 3',5'-cyclic-AMP phosphodiesterase 4D (Q08499 whole entry): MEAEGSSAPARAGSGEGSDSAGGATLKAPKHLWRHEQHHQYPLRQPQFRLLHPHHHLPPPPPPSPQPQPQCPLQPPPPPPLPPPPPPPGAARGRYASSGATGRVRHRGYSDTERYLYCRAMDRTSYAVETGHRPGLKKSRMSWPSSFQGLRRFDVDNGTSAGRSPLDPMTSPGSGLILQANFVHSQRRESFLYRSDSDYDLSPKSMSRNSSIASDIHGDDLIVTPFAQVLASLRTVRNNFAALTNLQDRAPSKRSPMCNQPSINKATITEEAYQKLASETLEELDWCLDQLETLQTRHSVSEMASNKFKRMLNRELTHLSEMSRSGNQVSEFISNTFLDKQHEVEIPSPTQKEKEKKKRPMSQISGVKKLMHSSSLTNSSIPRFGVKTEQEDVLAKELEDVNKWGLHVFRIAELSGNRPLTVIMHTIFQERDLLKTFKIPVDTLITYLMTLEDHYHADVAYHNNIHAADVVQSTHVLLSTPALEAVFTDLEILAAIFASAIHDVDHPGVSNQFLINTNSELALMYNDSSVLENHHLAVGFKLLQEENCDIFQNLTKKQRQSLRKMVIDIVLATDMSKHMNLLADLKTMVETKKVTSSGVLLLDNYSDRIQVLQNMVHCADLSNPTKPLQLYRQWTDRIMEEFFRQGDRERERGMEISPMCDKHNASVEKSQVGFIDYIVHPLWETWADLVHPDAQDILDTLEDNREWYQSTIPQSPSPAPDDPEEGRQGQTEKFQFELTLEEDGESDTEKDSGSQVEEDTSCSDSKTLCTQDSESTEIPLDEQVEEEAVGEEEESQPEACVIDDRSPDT

[9] = biological target: T3, Prostaglandin G/H synthase 1 (Rattus norvegicus, UniProt Q63921); format: functional
T3 sequence (Q63921 whole entry): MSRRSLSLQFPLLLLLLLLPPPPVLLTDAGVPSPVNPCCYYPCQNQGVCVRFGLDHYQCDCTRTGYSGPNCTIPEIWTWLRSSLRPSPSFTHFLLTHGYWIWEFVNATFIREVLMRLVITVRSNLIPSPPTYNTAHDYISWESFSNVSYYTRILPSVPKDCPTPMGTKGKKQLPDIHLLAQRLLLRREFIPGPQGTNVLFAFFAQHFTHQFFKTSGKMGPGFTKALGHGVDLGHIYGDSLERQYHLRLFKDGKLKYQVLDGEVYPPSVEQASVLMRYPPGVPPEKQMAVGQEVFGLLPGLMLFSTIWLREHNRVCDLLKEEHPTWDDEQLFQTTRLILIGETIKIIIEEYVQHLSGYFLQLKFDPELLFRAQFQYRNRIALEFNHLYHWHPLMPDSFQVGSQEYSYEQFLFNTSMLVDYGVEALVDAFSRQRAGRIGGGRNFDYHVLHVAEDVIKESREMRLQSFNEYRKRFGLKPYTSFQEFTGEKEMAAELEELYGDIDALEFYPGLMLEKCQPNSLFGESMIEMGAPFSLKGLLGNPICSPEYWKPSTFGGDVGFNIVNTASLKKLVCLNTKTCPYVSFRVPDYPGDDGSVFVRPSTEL

[10] = biological target: T4, Equilibrative nucleoside transporter 1 (Homo sapiens, UniProt Q99808)
T4 sequence (Q99808 whole entry): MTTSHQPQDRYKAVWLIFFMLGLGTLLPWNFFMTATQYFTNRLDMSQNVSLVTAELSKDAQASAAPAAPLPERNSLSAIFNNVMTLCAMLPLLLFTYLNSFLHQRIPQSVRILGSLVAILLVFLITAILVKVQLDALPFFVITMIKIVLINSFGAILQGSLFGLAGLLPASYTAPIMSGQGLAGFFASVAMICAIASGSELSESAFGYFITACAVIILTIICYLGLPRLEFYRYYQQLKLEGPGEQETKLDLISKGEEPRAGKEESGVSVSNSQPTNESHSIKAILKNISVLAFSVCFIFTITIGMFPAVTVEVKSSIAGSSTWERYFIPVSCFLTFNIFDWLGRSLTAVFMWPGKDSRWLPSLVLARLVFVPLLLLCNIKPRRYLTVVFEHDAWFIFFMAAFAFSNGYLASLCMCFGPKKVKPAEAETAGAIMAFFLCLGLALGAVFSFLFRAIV

[11] = biological target: Sodium-dependent noradrenaline transporter (Homo sapiens, UniProt P23975)
[12] = biological target: cGMP-inhibited 3',5'-cyclic phosphodiesterase 3A (Homo sapiens, UniProt Q14432); format: functional
Chain of cGMP-inhibited 3',5'-cyclic phosphodiesterase 3A (Q14432 whole entry): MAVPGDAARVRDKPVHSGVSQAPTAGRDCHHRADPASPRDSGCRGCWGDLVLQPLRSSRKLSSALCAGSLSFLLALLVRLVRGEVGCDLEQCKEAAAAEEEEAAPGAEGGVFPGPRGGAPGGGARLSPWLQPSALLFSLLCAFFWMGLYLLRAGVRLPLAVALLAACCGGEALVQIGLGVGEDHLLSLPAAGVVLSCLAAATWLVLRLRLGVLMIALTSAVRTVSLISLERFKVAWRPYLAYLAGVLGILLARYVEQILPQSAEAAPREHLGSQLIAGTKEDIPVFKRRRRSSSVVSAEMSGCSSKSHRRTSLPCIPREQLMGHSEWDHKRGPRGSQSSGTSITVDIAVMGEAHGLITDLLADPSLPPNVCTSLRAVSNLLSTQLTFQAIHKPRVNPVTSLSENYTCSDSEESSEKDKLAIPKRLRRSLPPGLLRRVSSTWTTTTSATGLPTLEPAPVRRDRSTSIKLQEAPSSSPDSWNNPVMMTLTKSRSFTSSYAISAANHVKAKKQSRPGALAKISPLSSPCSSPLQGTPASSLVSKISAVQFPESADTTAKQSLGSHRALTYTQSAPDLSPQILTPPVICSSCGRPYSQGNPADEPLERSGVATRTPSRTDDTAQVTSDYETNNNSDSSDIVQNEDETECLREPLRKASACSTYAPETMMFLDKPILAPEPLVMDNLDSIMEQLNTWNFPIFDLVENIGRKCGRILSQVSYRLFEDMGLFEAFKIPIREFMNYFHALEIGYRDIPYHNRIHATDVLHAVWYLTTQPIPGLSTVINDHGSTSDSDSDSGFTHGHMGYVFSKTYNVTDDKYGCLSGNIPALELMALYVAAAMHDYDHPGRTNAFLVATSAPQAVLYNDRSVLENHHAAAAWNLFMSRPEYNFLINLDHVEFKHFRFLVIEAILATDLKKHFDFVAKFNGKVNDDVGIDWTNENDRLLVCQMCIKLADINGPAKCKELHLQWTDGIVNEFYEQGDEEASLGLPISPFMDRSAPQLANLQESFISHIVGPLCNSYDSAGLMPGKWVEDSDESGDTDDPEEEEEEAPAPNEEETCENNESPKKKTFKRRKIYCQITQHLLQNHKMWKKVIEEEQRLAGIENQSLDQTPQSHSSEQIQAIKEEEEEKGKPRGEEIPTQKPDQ

D(3) dopamine receptor = D(3) dopamine receptor (Homo sapiens, UniProt P35462)
Further: assay procedure not described here.

| Structure (SMILES) | AC50 (Adenosine receptor A2a) | AC50 [1] | AC50 (Vasopressin V1a receptor) | AC50 [2] | AC50 [3] | AC50 (D(1A) dopamine receptor) | AC50 [4] | AC50 [5] | AC50 [6] | AC50 (Melanocortin receptor 3) | AC50 (Motilin receptor) | AC50 [7] | AC50 [8] | AC50 [9] | AC50 [10] | AC50 [11] | AC50 [12] | AC50 (D(3) dopamine receptor) |
| --- | --- | --- | --- | --- | --- | --- | --- | --- | --- | --- | --- | --- | --- | --- | --- | --- | --- | --- |
| C[C@@H](O)[C@H]1C(=O)N2C(C(=O)O)=C(S[C@@H]3CN[C@H](C(=O)N(C)C)C3)[C@H](C)[C@H]12 [MEROPENEM] | > 300 µM | > 300 µM | > 300 µM | > 300 µM | > 300 µM | > 300 µM | > 10 µM | > 300 µM | > 300 µM | > 300 µM | > 300 µM | > 300 µM | > 300 µM | 33.4 µM | > 300 µM | > 300 µM | > 300 µM | > 300 µM |
| CNC1Cc2ccccc2N(C)c2ccccc21 (stereo not given) [METAPRAMINE] | > 30 µM | > 30 µM | > 30 µM | > 30 µM | > 30 µM | > 30 µM | > 30 µM | > 30 µM | 0.95 µM | > 30 µM | > 30 µM | > 30 µM | > 30 µM | > 30 µM | > 30 µM | 16 µM | > 30 µM | > 30 µM |
| CC1(C)NC(=O)N(c2ccc([N+](=O)[O-])c(C(F)(F)F)c2)C1=O [NILUTAMIDE] | > 30 µM | > 30 µM | > 30 µM | > 30 µM | > 30 µM | > 30 µM | > 30 µM | > 30 µM | > 30 µM | > 30 µM | > 30 µM | > 30 µM | 28 µM | > 30 µM | > 30 µM | > 30 µM | > 30 µM | > 30 µM |
| CC[C@H]1[C@@H](O)[C@@H]2[C@H](CC[C@]3(C)[C@@H]([C@H](C)CCC(=O)O)CC[C@@H]23)[C@@]2(C)CC[C@@H](O)C[C@@H]12 [OBETICHOLIC ACID] | > 30 µM | > 30 µM | > 30 µM | > 30 µM | > 30 µM | > 30 µM | > 30 µM | > 30 µM | > 30 µM | > 30 µM | > 30 µM | > 30 µM | > 30 µM | 27 µM | > 30 µM | > 30 µM | > 30 µM | > 30 µM |
| COc1ccc(CC(C)(C)NC[C@H](O)c2cc(O)cc3c2OCC(=O)N3)cc1 [OLODATEROL] | > 30 µM | > 30 µM | > 30 µM | > 30 µM | > 30 µM | > 30 µM | > 30 µM | > 30 µM | > 30 µM | > 30 µM | > 30 µM | > 30 µM | 21 µM | 17.5 µM | > 30 µM | > 30 µM | > 30 µM | > 30 µM |
| C1CCC(C(CC2CCCCN2)C2CCCCC2)CC1 (stereo not given) [PERHEXILINE] | > 30 µM | 11 µM | > 30 µM | > 30 µM | > 3 µM | > 30 µM | > 30 µM | 6.2 µM | 12 µM | 8.28 µM | 29 µM | 23.5 µM | > 30 µM | > 30 µM | > 30 µM | 7.24 µM | > 30 µM | > 30 µM |
| c1cnc(N2CCN(Cc3ccc4c(c3)OCO4)CC2)nc1 [PIRIBEDIL] | > 30 µM | > 30 µM | > 30 µM | > 30 µM | > 30 µM | > 30 µM | > 30 µM | 30 µM | > 30 µM | > 30 µM | > 30 µM | > 30 µM | > 30 µM | > 30 µM | > 30 µM | 18 µM | > 30 µM | 7.1 µM |
| COCCCN1CCC(NC(=O)c2cc(Cl)c(N)c3c2OCC3)CC1 [PRUCALOPRIDE] | > 30 µM | > 30 µM | > 30 µM | > 30 µM | > 30 µM | > 30 µM | > 30 µM | > 30 µM | > 30 µM | > 30 µM | > 30 µM | > 30 µM | > 30 µM | > 30 µM | > 30 µM | > 30 µM | > 30 µM | > 30 µM |
| COc1ccccc1OCC(O)CN1CCN(CC(=O)Nc2c(C)cccc2C)CC1 (stereo not given) [RANOLAZINE] | > 30 µM | > 30 µM | > 30 µM | > 30 µM | > 30 µM | > 30 µM | > 30 µM | > 30 µM | > 30 µM | > 30 µM | > 30 µM | > 30 µM | > 30 µM | > 30 µM | > 30 µM | > 30 µM | > 30 µM | 18 µM |
| Cc1c(C(=O)NN2CCCCC2)nn(-c2ccc(Cl)cc2Cl)c1-c1ccc(Cl)cc1 [RIMONABANT] | > 30 µM | > 30 µM | 30 µM | 17 µM | > 10 µM | > 30 µM | > 30 µM | 25 µM | > 30 µM | 15.9 µM | 21 µM | > 30 µM | > 30 µM | > 30 µM | 20.1 µM | 22 µM | 8.4 µM | 15 µM |
